Results: article PMC8197367, “Comparative Antimicrobial Activity of Hp404 Peptide and Its Analogs against Acinetobacter baumannii” (International Journal of Molecular Sciences, 2021)
Converted amounts (≈) assume the structure as drawn.

What was measured:
[1] = tested on: A. baumannii #3; test: Biofilm inhibition, crystal violet assay; assay type: cell-based, Acinetobacter baumannii; details: NB with 0.2% glucose, 24 h, 37 °C, 595 nm, highest concentration 25 μM
Protocol: (§1) Acinetobacter baumannii KCTC 2508, #3, #4, 409081 and 719705 were incubated overnight at 37°C to mid-log phase in NB medium. Bacterial cells (5 × 10^5 CFU/mL) were suspended in NB containing 0.2% glucose. A final concentration of 25 μM of peptides and antibiotics (meropenem and polymyxin B) was prepared with the bacterial suspensions in 96-well tissue culture plates and incubated at 37 °C for 24 h. The culture media was carefully removed, and biofilms were fixed with 100% methanol for 15 min and then stained with 0.1% crystal violet for 1 h and rinsed three times with distilled water. After air-drying, the biofilm mass was dissolved in 100 μL of 95% ethanol and measured at 595 nm using a microplate reader.

[2] = tested on: A. baumannii KCTC 2508; test: Biofilm inhibition, crystal violet assay; assay type: cell-based, Acinetobacter baumannii; details: NB with 0.2% glucose, 24 h, 37 °C, 595 nm, highest concentration 25 μM
Protocol: as §1

[3] = tested on: A. baumannii 409081; test: Biofilm inhibition, crystal violet assay; assay type: cell-based, Acinetobacter baumannii; details: NB with 0.2% glucose, 24 h, 37 °C, 595 nm, highest concentration 25 μM
Protocol: as §1

[4] = tested on: A. baumannii #3; test: microbe, parasite or virus in culture; details: 18 h
Description: (§2) Staphylococcus aureus ATCC 25923, S. aureus ATCC 29213, P. aeruginosa ATCC 27853, Escherichia coli ATCC 25922 and Salmonella typhimurium ATCC 14028 strains were obtained from the American Type Culture Collection (ATCC, Manassas, VA, USA). Listeria monocytogenes KCTC 3710, Bacillus cereus KCTC 1012, K. pneumoniae KCTC 2208 and A. baumannii KCTC 2508 were obtained from the Korean Collection for Type Cultures (KRIBB, Daejeon, South Korea). Clinical isolates of A. baumannii strains were collected from Eulji University Hospital (Seoul, South Korea).
(§3) Hp1404 and its analog peptides activity against both gram-positive and gram-negative bacterial strains were tested using the broth microdilution method. Briefly, S. aureus (ATCC 25923, ATCC 29213) and B. cereus KCTC 1012 were cultured overnight at 37 °C in tryptic soy broth (TSB). P. aeruginosa ATCC 27853, K. pneumoniae KCTC 2208, A. baumannii KCTC 2508 and S. typhimurium ATCC 14028 were cultured overnight at 37 °C in nutrient broth (NB). E. coli ATCC 25922 was cultured overnight at 37 °C in luria bertani (LB). L. monocytogenes KCTC 3710 was cultured overnight at 37 °C in brain heart infusion (BHI). The cultures were diluted with fresh medium at a density of 2 × 10^5 CFU/mL. Peptides were serially diluted in sodium phosphate buffer (pH 7.2) to a final concentration of 25 μM. In a 96-well plate, 50-μL bacterial aliquots were mixed with 50 μL peptide solution. After incubation at 37 °C for 18 h, the MIC was determined using a plate reader at 600 nm. The experiment was performed in triplicate.

[5] = tested on: A. baumannii #2; test: microbe, parasite or virus in culture; details: 18 h
Description: as §2, §3

[6] = tested on: A. baumannii 409081; test: microbe, parasite or virus in culture
Description: as §2, §3

[7] = tested on: A. baumannii #4; test: microbe, parasite or virus in culture; details: 18 h
Description: as §2, §3

[8] = tested on: A. baumannii 719705; test: microbe, parasite or virus in culture
Description: as §2, §3

[9] = tested on: A. baumannii 907233; test: microbe, parasite or virus in culture
Description: as §2, §3

[10] = tested on: A. baumannii biofilms; test: Live biofilm viability assay, SYTO 9 imaging; assay type: cell-based, Acinetobacter baumannii; details: preformed biofilm treated with 50 μM for 24 h; A. baumannii including strains isolated from patients; EVOS FL Auto 2
Protocol: An A. baumannii biofilm viability assay was performed by staining with Syto9 dye. Acinetobacter baumannii strains were diluted to approximately 5 × 10^5 CFU/mL and incubated for 24 h. Biofilms of A. baumannii strains were washed with PBS and treated with 25 and 50 μM peptides and antibiotics for 24 h. Biofilms were stained with SYTO 9 diluted in PBS and the biofilm was visualized using an EVOS™ FL Auto 2 Imaging System (Thermo Fisher Scientific, Waltham, MA, USA).

[11] = tested on: A. baumannii 719705; test: Biofilm inhibition, crystal violet assay; assay type: cell-based, Acinetobacter baumannii; details: NB with 0.2% glucose, 24 h, 37 °C, 595 nm, highest concentration 25 μM
Protocol: as §1

Molecule	concentration that inhibited biofilm formation [1]	concentration that inhibited biofilm formation [2]	concentration that inhibited biofilm formation [3]	MIC ([4]; Acinetobacter baumannii)	MIC ([5]; Acinetobacter baumannii)	MIC ([6]; Acinetobacter baumannii, 409081, 18 h)	MIC ([7]; Acinetobacter baumannii)	MIC ([8]; Acinetobacter baumannii, 719705, 18 h)	MIC ([9]; Acinetobacter baumannii, 907233, 18 h)	biofilm reduction by SYTO 9 fluorescence imaging [10]	concentration that inhibited biofilm formation [11]	MIC ([4]; A. baumannii #3 isolated from patient, broth microdilution, 37 °C, three independent experiments)	MIC ([5]; A. baumannii #2 isolated from patient, broth microdilution, 37 °C, three independent experiments)	MIC ([6]; A. baumannii 409081 isolated from patient, broth microdilution, 37 °C, 18 h, three independent experiments)	MIC ([7]; A. baumannii #4 isolated from patient, broth microdilution, 37 °C, three independent experiments)	MIC ([8]; A. baumannii 719705 isolated from patient, broth microdilution, 37 °C, 18 h, three independent experiments)	MIC ([9]; A. baumannii 907233 isolated from patient, broth microdilution, 37 °C, 18 h, three independent experiments)
C[C@@H](O)[C@H]1C(=O)N2C(C(=O)O)=C(S[C@@H]3CN[C@H](C(=O)N(C)C)C3)[C@H](C)[C@H]12 [Meropenem, meropenem, reference compound]	≥ 25 µM	6.25 µM	≥ 25 µM	50 µM (≈ 19.2 µg/mL)	100 µM (≈ 38.3 µg/mL)	200 µM (≈ 76.7 µg/mL)	100 µM (≈ 38.3 µg/mL)	100 µM (≈ 38.3 µg/mL)	200 µM (≈ 76.7 µg/mL)	did not decrease biofilm formation							
polymyxin B [reference compound]	6.25 µM	6.25 µM	6.25 µM							did not decrease biofilm formation	6.25 µM	0.78 µM	0.39 µM	0.78 µM	0.39 µM	0.78 µM	0.78 µM
